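Interpolation was linear, between the two tested concentrations surrounding the appropriate level; five concentrations were tested over 48 hours in 96-well plates. Abbreviation: GI50, concentration required for 50% inhibition of growth. TGI: concentration producing complete growth inhibition.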
Assays:
Experiment in all cases: NCI-60 cell line screen, 48 h
ACHN renal = tested on: ACHN renal
HCT-15 colon = tested on: HCT-15 colon
HT29 colon = tested on: HT29 colon
K-562 leukemia = tested on: K-562 leukemia
M14 melanoma = tested on: M14 melanoma
NCI-H460 lung = tested on: NCI-H460 lung
OVCAR-5 ovarian = tested on: OVCAR-5 ovarian
OVCAR-8 ovarian = tested on: OVCAR-8 ovarian
RXF 393 renal = tested on: RXF 393 renal
SW-620 colon = tested on: SW-620 colon

With `COc1cc(/C=C/[N+](=O)[O-])cc(OC)c1OC` the GI50 (ACHN renal) was 1.83 µM, the TGI (ACHN renal) was 3.46 µM and the GI50 (HCT-15 colon) was 1.96 µM. For the same compound, the TGI (HCT-15 colon) was 5.04 µM, the GI50 (HT29 colon) was 2.2 µM and the TGI (HT29 colon) was 4.81 µM. The GI50 (K-562 leukemia) was 2.81 µM, the TGI (K-562 leukemia) was greater than 100 µM and the GI50 (M14 melanoma) was 2.07 µM. It also gave a TGI (M14 melanoma) of 4.31 µM, a GI50 (NCI-H460 lung) of 3.36 µM and a TGI (NCI-H460 lung) of 12.4 µM. The GI50 (OVCAR-5 ovarian) was 2.09 µM, the TGI (OVCAR-5 ovarian) was 5.11 µM and the GI50 (OVCAR-8 ovarian) was 3.04 µM. It also gave a TGI (OVCAR-8 ovarian) of 12.1 µM, a GI50 (RXF 393 renal) of 1.47 µM and a TGI (RXF 393 renal) of 2.97 µM. For the same compound, the GI50 (SW-620 colon) was 1.71 µM and the TGI (SW-620 colon) was 4.16 µM.

In the case of `O=C(CCc1nc(=S)[nH][nH]1)Nc1cccc(C(F)(F)F)c1`, the TGI (ACHN renal) is reported as greater than 100 µM, the TGI (HCT-15 colon) is reported as greater than 100 µM and the TGI (HT29 colon) is reported as greater than 100 µM. It also gave a TGI (K-562 leukemia) greater than 100 µM, a TGI (M14 melanoma) greater than 100 µM and a TGI (NCI-H460 lung) greater than 100 µM. For the same compound, the TGI (OVCAR-5 ovarian) was greater than 100 µM, the TGI (OVCAR-8 ovarian) was greater than 100 µM and the TGI (RXF 393 renal) was greater than 100 µM. It also gave a TGI (SW-620 colon) of 28.5 µM.
